{"source": "patent US20260176275A1", "about": "“VINYLPHOSPHONIC ACID-MODIFIED MRNA CAP ANALOG, METHOD FOR PREPARING SAME, AND USE THEREOF” (Jiangsu Synthgene Biotechnology Co., Ltd., priority 2022, published 2026)", "key": {"[1]": {"molecular_target": "T1, T7 RNA polymerase (Escherichia phage T7, UniProt P00573)", "T1 sequence (P00573 whole entry)": "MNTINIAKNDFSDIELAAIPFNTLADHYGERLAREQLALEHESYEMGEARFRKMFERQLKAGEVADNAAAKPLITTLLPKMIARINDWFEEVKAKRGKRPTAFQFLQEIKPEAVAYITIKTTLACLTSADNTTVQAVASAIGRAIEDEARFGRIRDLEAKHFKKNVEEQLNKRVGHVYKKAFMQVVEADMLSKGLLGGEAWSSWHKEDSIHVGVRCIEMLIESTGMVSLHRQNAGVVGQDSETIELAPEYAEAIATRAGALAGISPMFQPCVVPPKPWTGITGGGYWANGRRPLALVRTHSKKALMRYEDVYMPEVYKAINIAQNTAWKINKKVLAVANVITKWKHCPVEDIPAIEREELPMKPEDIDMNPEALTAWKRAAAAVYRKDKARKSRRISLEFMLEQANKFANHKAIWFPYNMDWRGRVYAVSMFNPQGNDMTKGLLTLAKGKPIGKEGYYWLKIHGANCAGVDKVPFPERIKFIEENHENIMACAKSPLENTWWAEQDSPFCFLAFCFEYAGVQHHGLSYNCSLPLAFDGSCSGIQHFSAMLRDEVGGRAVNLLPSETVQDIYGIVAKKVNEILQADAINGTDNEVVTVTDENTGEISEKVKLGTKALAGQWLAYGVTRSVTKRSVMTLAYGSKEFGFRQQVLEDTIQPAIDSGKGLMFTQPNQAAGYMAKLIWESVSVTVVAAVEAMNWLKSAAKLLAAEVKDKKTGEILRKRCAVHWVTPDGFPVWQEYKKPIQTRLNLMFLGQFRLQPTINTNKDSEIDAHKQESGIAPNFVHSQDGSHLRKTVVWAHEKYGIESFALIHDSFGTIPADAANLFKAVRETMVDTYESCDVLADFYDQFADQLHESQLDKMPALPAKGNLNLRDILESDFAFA", "assay": "IVT capping rate of mRNA by LC-MS after RNase H cleavage", "assay_type": "biochemical", "protocol": "(§1) In-vitro synthesis of mRNA cap analogs modified with vinylphosphonic acid: Firstly, a plasmid was linearized with NotI and digested at […] overnight. A DNA template was extracted. mRNAs were synthesized by in-vitro transcription using the vinylphosphonic acid-modified mRNA cap analogs of Examples 1-7 and compounds 10-13, 16, 17, 25, 31 and 34, and the cap analog of Comparative Example 1 as cap structures, respectively.\n(§2) Note: During the experiment, the volume of the materials required for the system was calculated firstly, and then sample loading was performed. Firstly, sterile enzyme-free water was added into the system, and then 10× buffer, NTPs, and the cap analog were sequentially added. The mixture was uniformly mixed and then gently centrifuged, followed by addition of the nuclease inhibitor, the inorganic pyrophosphatase, the T7 RNA polymerase, and the linearized DNA template. The mixture was well mixed, then gently centrifuged, and incubated at 37° C. After 2 h, DNase I (1 U) was added, and the mixture was incubated at 37° C. for another 30 min to remove the DNA template. RNA purification was then performed (usually using the magnetic bead purification method). The purified mRNA was dissolved in sterile enzyme-free water, and then quantitative detection was performed by using Nanodrop One.\nLiquid chromatography-mass spectrometry (LC-MS) was used to detect the IVT capping rates of mRNAs with different starting cap analogs. Firstly, a labeled (usually biotin-labeled) DNA probe matched with the starting base of mRNA as the transcript product was required to be designed, and streptavidin-labeled magnetic beads were washed, and then incubated with the synthesized DNA probe, mRNA and 10× RNase H reaction buffer with slowly mixing at room temperature for 30 min. 20 L of RNase H (5 U/μL) was then added, and the mixture was incubated at 37° C. for 3 h, with uniform mixing every half hour. After the incubation was completed, the magnetic beads were cleaned, and then 100 μL of 75% methanol heated to 80° C. was added to the cleaned magnetic beads. The mixture was heated to 80° C. on a heating plate, held for 3 min, and then placed on a magnetic rack. The supernatant was pipetted and dried at room temperature for 45 min to 10 Lby using an evaporation centrifuge. The sample was then resuspended in 50 μL of 100 μM EDTA/1% MeOH for LC-MS analysis to determine the capping of RNA in the transcription reaction. Due to the significant difference in molecular weight between capped and uncapped bases, the capping rates of mRNA transcription initiated with different cap analogs can be determined by using the difference in molecular weight."}, "[2]": {"molecular_target": "eukaryotic initiation factor (elF4E) (Homo sapiens, UniProt P06730)", "sequence (P06730 whole entry)": "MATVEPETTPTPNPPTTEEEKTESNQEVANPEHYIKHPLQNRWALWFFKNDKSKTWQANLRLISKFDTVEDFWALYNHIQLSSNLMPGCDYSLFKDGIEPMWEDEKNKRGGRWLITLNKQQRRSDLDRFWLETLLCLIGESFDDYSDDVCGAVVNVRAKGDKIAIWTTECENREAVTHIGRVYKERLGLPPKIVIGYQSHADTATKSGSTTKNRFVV", "assay": "Assay of binding ability to eukaryotic initiation factor (elF4E), Biacore T100", "protocol": "Test method: Firstly, experimental samples, including the cap analog samples of Examples 1-7, compounds 10-13, 16, 17, 25, 31 and 34, and Comparative Example 1, were diluted with a running buffer (50 mM phosphate, 100 mM sodium chloride, and 0.01% vol/vol Tween 20, pH 6.0 or 7.4). The sample injection time was […], the sample injection flow rate was 20 L/min, and the dissociation time was […]. The residual samples were eluted with a regeneration buffer (10 mM HEPES, 150 mM NaCl, and 0.010% vol/vol Tween 20, pH 7.4) for 30 s at a flow rate of 30 μL/min. Finally, through analysis by Biacore T100 evaluation software (version 2.0.2), sensorgrams were generated and the binding constants were calculated."}, "[3]": {"test_system": "293T cells", "assay": "mRNA translation efficiency: eGFP mRNA capped with the analogs transfected into 293T cells, GFP fluorescence", "assay_type": "cell-based", "conditions": "summary of Table 6", "protocol": "Test method: In-vitro transcription was initiated with the cap analogs of Examples 1-7, compounds 10-13, 16, 17, 25, 31 and 34, and Comparative Example 1 by using an eGFP coding sequence as a DNA template. The different mRNA products obtained were then transfected into 293T cells. The 293T cells were plated (onto a 24-well plate) at (0.5-1)×10^5 cells/well. During the transfection, in general, the cell density was preferably 60%-80%; […] was transfected into each well, and the Lipofectamine MessengerMAX Transfection Reagent (Invitrogen) was selected as the transfection reagent and used according to its usage instructions. The transfected cells were placed in an incubator at 37° C. with CO2. After transfection for 4-6 h, the medium was replaced with a fresh complete medium. After incubation in the incubator at 37° C. with CO2 for 24 h, the fluorescence intensity of GFPs in the cells was observed through a fluorescence microscope, and the fluorescence intensity ratios of Examples 1-7 and compounds 10-13, 16, 17, 25, 31 and 34 relative to Comparative Example 1 were calculated based on the fluorescence intensities."}, "[4]": {"molecular_target": "T1, T7 RNA polymerase", "assay": "mRNA in-vitro transcription yield with cap analog (T7 IVT, Nanodrop One quantification)", "assay_type": "biochemical", "protocol": "as §1, §2"}}}
{"smiles": "COC1[C@@H](OP(=O)(O)/C=C/[C@H]2O[C@@H](n3cnc4c(=O)[nH]c(N)nc43)C(O)[C@H]2O)[C@@H](/C=C\\P(=O)(O)OP(=O)(O)OP(=O)(O)/C=C\\[C@H]2O[C@@H](n3c[n+](C)c4c(=O)[nH]c(N)nc43)[C@@H](O)C2O)O[C@H]1n1cnc2c(N)ncnc21", "note": "(stereo partly shown) [Example 7]", "values": [{"measurement": "Capping rate", "setting": "[1]; LC-MS of mRNA transcribed with the cap analog", "result": 82.6, "unit": "%"}, {"measurement": "capping efficiency compared with Comparative Example 1 (in words)", "setting": "[1]; text summary of Table 4", "result": "significantly lower than those of Comparative Example 1"}, {"measurement": "binding constant to elF4E protein compared with Comparative Example 1 (in words)", "setting": "[2]; Table 5", "result": "the lowest as compared to Comparative Example 1"}, {"measurement": "Kd", "setting": "[2]; cap analog to elF4E protein, running buffer pH 6.0 or 7.4, read-out: Binding constant (converted)", "result": 1160, "unit": "nM"}, {"measurement": "intracellular translation effect of mRNA compared with Comparative Example 1 (in words)", "setting": "[3]", "result": "the lowest as compared to Comparative Example 1"}, {"measurement": "Yield", "setting": "[4]; mRNA from 20 μL IVT system, 1 μl 100 mM cap analog, 1 μg template, 37° C. 2 h", "result": 85, "unit": "µg"}, {"measurement": "in-vitro transcription yield compared with Comparative Example 1 (in words)", "setting": "[4]; text summary of Table 4", "result": "significantly lower than those of Comparative Example 1"}]}
